{
  "source": "patent US9863955B2",
  "about": "“AMPK activator screening method, and AMPK activator” (KYORIN PHARMACEUTICAL CO., LTD., priority 2012, dated 2018)",
  "key": {"[1]": {"system": "human PHB2", "test": "Real-time PCR of HepG2 cells transfected with siRNA: PHB2", "type": "cell-based", "conditions": "72 hours after transfection (FIG. 1)", "description": "(§1) Human hepatoma cell line HepG2 cells were transfected with siRNA (Stealth RNAi, Invitrogen) against human PHB1 or human PHB2 using Lipofectamine RNAiMAX (Invitrogen).\n(§2) Seventy-two hours after the transfection, RNA was extracted from siRNA transfected cells using RNeasy Mini Kit (Qiagen). The thus obtained RNA was reverse transcribed into a cDNA using High Capacity cDNA Reverse Transcription Kit (Applied Biosystems). The resultant cDNA was subjected to real-time PCR by TaqMan Gene Expression Assays (Applied Biosystems, PHB1: Hs_00855044_gl, PHB2: Hs_00200720_ml) using 7500 Fast Real-Time PCR system (Applied Biosystems), and thus, the influence of the knockdown of PHB1 or PHB2 on the amount of gene expression was detected."}, "[2]": {"system": "ACC", "test": "Western blotting of HepG2 cells cultured with compound A: ACC", "type": "cell-based, human", "conditions": "various final concentrations, 3 hours culture (FIG. 8)"}, "[3]": {"system": "PHB2", "test": "Western blotting of HepG2 cells cultured with compound A: PHB2", "type": "cell-based, human", "conditions": "various final concentrations, 3 hours culture (FIG. 8)", "experimental": "(§3) Compound A was added to a HepG2 cell culture system to various final concentrations, and after culturing the resultant for 3 hours, the cells were lysed in a lysis buffer to obtain a cell extract. The thus obtained cell extract was used for performing SDS-PAGE so as to separate proteins contained in the extract in accordance with their sizes, and the resultant was transferred to a PVDF membrane to detect PHB1, PHB2, AMPKα and phosphorylated AMPKα by Western blotting."}, "[4]": {"system": "PHB1", "test": "Western blotting of HepG2 cells cultured with compound A: PHB1", "type": "cell-based, human", "conditions": "various final concentrations, 3 hours culture (FIG. 8)", "experimental": "as §3"}, "[5]": {"molecular_target": "T1, interaction between PHB1 and AMPK (Homo sapiens, UniProt P35232)", "T1 construct": "purchased Abnova Corp. (GST-PHB1); Calbiochem (AMPK)", "T1 sequence (P35232 1-272)": "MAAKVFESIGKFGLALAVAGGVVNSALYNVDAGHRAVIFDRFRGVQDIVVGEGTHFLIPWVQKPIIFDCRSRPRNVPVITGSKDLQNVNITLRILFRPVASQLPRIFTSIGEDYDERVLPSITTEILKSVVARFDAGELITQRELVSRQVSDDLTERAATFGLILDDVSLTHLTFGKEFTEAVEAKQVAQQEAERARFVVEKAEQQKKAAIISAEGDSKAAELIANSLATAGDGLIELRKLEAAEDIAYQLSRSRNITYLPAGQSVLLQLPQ", "test": "GST pull down assay of GST-PHB1 protein and AMPK in the presence of compound A", "type": "binding", "conditions": "compound A final concentration 10 μM, 3 hours at 4° C., Western blotting (FIG. 7)", "experimental": "Specifically, Glutathione Sepharose 4 Fast Flow carrier (GE Healthcare) was bound to each of commercially available GST protein, a GST fusion PHB1 protein (hereinafter also referred to as GST-PHB1 protein) (Abnova Corp.) and a GST fusion PHB2 protein (hereinafter also referred to as the GST-PHB2 protein) (Abnova Corp.) to obtain GST carrier-protein complexes. Each of the GST carrier-protein complexes and AMPK (Calbiochem) were incubated in a NET buffer (0.5% NP-40, 50 mM Tris-HCl pH 7.5, 50 mM sodium chloride, and 5 mM EDTA) for 3 hours at 4° C. for binding. After washing the resultant with a NET buffer, a sample buffer (50 mM Tris-HCl pH 6.8, 2% SDS, 10% glycerin, 1% β-mercaptoethanol, 12.5 mM EDTA, and 0.02% bromophenol blue) was added thereto to prepare a sample. The thus obtained sample was separated by SDS-PAGE, the resultant was transferred to a PVDF membrane and subjected to Western blotting using anti-AMPKα and anti-GST antibodies, so as to detect whether or not AMPK was bound to GST protein, GST-PHB1 protein or GST-PHB2 protein bound to Gluthathione Sepharose to be pulled down.\nGST-PHB1 protein (500 ng) was bound to Glutathione Sepharose 4 Fast Flow (10 μL) to obtain a GST carrier-protein complex. […]"}, "[6]": {"system": "AMPKα", "test": "Western blotting of HepG2 cells cultured with compound A: AMPKα", "type": "cell-based, human", "conditions": "various final concentrations, 3 hours culture (FIG. 8)", "experimental": "as §3"}, "[7]": {"system": "human PHB1", "test": "Real-time PCR of HepG2 cells transfected with siRNA: PHB1", "type": "cell-based", "conditions": "72 hours after transfection (FIG. 1)", "description": "as §1, §2"}},
  "data": [
    {"compound": "siPHB2: siRNA (Stealth RNAi, Invitrogen) against human PHB2, SEQ ID NO: 3 and 4 (chain 1 UACGAUUCUGUGAUGUGGCGAUCGU; chain 2 ACGAUCGCCACAUCACAGAAUCGUA; Stealth RNAi (Invitrogen), modifications not given here)", "values": [
      {"measurement": "amount of transcription of PHB2", "setting": "[1]", "value": "specifically depressed"}
    ]},
    {"compound": "CCCCN1C(=O)CN(Cc2ccc(OC)c(C(=O)NCc3ccc(Oc4ccc(F)cc4)cc3)c2)C1=O", "note": "[compound A, 5(2,4-dioxo-3-butylimidazolidin-1-yl)methyl-2-methoxy-N-[4-(4-fluorophenoxy)phenylmethyl]benzamide]", "values": [
      {"measurement": "amount of ACC", "setting": "[2]", "value": "does not remarkably affect"},
      {"measurement": "level of phosphorylated ACC", "setting": "[2]", "value": "increased by compound A in a concentration-dependent manner"},
      {"measurement": "amount of PHB2", "setting": "[3]", "value": "does not remarkably affect"},
      {"measurement": "amount of PHB1", "setting": "[4]", "value": "does not remarkably affect"},
      {"measurement": "AMPKα pulled down by GST-PHB1 protein", "setting": "[5]", "value": "remarkably decreased"},
      {"measurement": "amount of AMPKα", "setting": "[6]", "value": "does not remarkably affect"},
      {"measurement": "level of phosphorylated AMPKα", "setting": "[6]", "value": "increased by compound A in a concentration-dependent manner"}
    ]},
    {"compound": "siPHB1: siRNA (Stealth RNAi, Invitrogen) against human PHB1, SEQ ID NO: 1 and 2 (chain 1 UUGGCAAUCAGCUCAGCUGCCUUGG; chain 2 CCAAGGCAGCUGAGCUGAUUGCCAA; Stealth RNAi (Invitrogen), modifications not given here)", "values": [
      {"measurement": "amount of transcription of PHB1", "setting": "[7]", "value": "specifically depressed"}
    ]}
  ]
}
